Assay [1] has as its system HCT 116 colon cancer cell line. The experiment in a line: MTS-based cell proliferation inhibition assay. The note with it: 72 h, dose-dependent (FIG. 2).
Procedure: The cell proliferation agent, 3-(4,5-dimethylthiazol-2-yl)-5-(3-carboxymethoxyphenyl)-2-(4-sulfophenyl)-2H-tetrazolium (“MTS”), was purchased from Promega (Madison, Wis.) and phenazinemethosulfate from Sigma-Aldrich (St. Louis, Mo.). Cultured cell lines were seeded in 96-well plates at 3×10^3 cells/well, maintained overnight at 37° C., and incubated in the presence of the tested compounds at various concentrations. […] Cells were incubated in 10 μL of this solution at 37° C. for 3 h and the UV absorption at 490 nm was measured. Vehicle-treated cells was used as the negative control. The IC50 values and the Hill slopes were generated using Graphpad Prism 5.0. All data were expressed as mean±SD.
Assay [2] deals with β-catenin/Tcf4 interaction (Homo sapiens (Human), UniProt P35222). Kind of assay: Fluorescence polarization (FP) competitive inhibition assay, β-catenin/Tcf4. The class given is binding. The method, then:
Experiments were performed in 96-well Microfluor 2 black plates (Waltham, Mass.), and the samples were read by a Synergy 2 plate reader (Biotek, Winooski, Vt.). […] The final reaction volume is 100 μL.
In the foregoing equation, mP, is the signal of the positive control; mPbound is the signal of the negative control; and mP is the signal of the tested inhibitor compound.

Setting [3] is: Table 2, mean ± standard deviation (n=3), read-out: Ki FP.

Where two headings read alike, the source gives them in different places.

Chain of β-catenin/Tcf4 interaction (P35222 138-686): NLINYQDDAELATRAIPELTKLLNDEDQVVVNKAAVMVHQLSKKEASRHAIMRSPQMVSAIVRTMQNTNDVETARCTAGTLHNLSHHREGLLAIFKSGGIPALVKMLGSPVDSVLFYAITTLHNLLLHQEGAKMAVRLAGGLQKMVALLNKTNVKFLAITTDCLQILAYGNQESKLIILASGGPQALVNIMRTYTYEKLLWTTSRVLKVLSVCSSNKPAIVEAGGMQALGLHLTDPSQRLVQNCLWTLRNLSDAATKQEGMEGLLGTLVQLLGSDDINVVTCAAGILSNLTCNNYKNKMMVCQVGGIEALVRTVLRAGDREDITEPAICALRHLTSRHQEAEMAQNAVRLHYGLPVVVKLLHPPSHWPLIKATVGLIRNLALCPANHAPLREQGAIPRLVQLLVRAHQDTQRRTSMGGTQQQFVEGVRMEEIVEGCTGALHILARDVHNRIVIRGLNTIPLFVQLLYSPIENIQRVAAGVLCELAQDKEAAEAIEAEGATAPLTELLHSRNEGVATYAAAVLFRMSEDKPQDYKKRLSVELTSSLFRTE

As to “5-(2-(2H-TETRAZOL-5-YL)ETHYL)-1H-INDAZOL-1-OL [Compound 12]”, the “Inhibition of proliferation of colon cancer cell line HCT116” value in assay [1] is listed as “inhibit the proliferation”. Turning to `O=c1[nH]c(Cc2ccc3c(c2)nnn3O)no1` [Compound 2, 3-((1-HYDROXY-1H-BENZO[D][1,2,3]TRIAZOL-5-YL)METHYL)-1,2,4-OXADIAZOL-5(4H)-ONE], the Ki in assay [2] (setting [3]) came out at 165.4 ± 1.45 µM. Still for that read-out and setting: next, `O=c1[nH]c(Cc2ccc3c(cnn3O)c2)no1` [Compound 10, 3-((1-HYDROXY-1H-INDAZOL-5-YL)METHYL)-1,2,4-OXADIAZOL-5(4H)-ONE]: 125 ± 1.3 µM. As to `COc1c(C[C@@H](C)OC(=O)Oc2ccc(O)cc2)c2c3c(C[C@@H](C)OC(=O)c4ccccc4)c(OC)c(=O)c4c(O)cc(OC)c(c5c(OC)cc(O)c(c1=O)c52)c43` [PKF115-584, reference compound], the Ki is 17.8 ± 2.13 µM in assay [2] (setting [3]) and 17.8 ± 2.13 µM in assay [2] (Table IV, FP assay, read-out: Ki ± SD β-catenin/Tcf4).

The values above are taken from US9284299B2, “Substituted 1H-indazol-1-ol analogs as inhibitors of beta catenin/Tcf protein-protein interactions” (UNIVERSITY OF UTAH RESEARCH FOUNDATION, priority 2012, dated 2016).
